For 1 molecule, IC50 and inhibition results are on record in article doi:10.1101/2021.09.30.462449v1 (biorxiv, 2021).

The target of one assay is CAMK1 (CaMK1) (Homo sapiens, UniProt Q14012). In words: Adapta universal kinase assay. The class given is biochemical.
For the next assay, the target named is CDK7/cyclin H/MNAT1 (Homo sapiens, UniProt P50613). As to the kind of experiment: biochemical. Particulars: read-out: % inhibition mean (Adapta).
For a further assay, the target named is PI4KA (PI4K alpha) (Homo sapiens, UniProt P42356). In words: biochemical. Particulars: read-out: % inhibition mean (Adapta).
The target in assay [1] is PIK3CD/PIK3R1 (p110 delta/p85 alpha) (Homo sapiens, UniProt O00329). As to the kind of experiment: biochemical. To be noted: read-out: % inhibition mean (Adapta).
A further assay deals with CDK6/cyclin D1 (Homo sapiens, UniProt Q00534). In words: biochemical. To be noted: read-out: % inhibition mean (Adapta).
Another assay concerns the target PIP5K1C (Homo sapiens, UniProt O60331). In words: biochemical. To be noted: read-out: % inhibition mean (Adapta).
The target of another assay is PI4KB (PI4K beta) (Homo sapiens, UniProt Q9UBF8). As to the kind of experiment: biochemical. Particulars: read-out: % inhibition mean (Adapta).
The target of assay [2] is PIK3CA/PIK3R1 (p110 alpha/p85 alpha) (Homo sapiens, UniProt P42336). As to the kind of experiment: biochemical. To be noted: read-out: % inhibition mean (Adapta).
The next assay deals with CHUK (IKK alpha) (Homo sapiens, UniProt O15111). As to the kind of experiment: biochemical. Particulars: read-out: % inhibition mean (Adapta).
The target of the next assay is LRRK2 G2019S (Homo sapiens, UniProt Q5S007, G2019S). As to the kind of experiment: biochemical. Particulars: read-out: % inhibition mean (Adapta).
For a further assay, the target named is PIK3C2B (PI3K-C2 beta) (Homo sapiens, UniProt O00750). As to the kind of experiment: biochemical. To be noted: read-out: % inhibition mean (Adapta).
Another assay addresses PI4K2A (PI4K2 alpha) (Homo sapiens, UniProt Q9BTU6). As to the kind of experiment: biochemical. To be noted: read-out: % inhibition mean (Adapta).
The next assay concerns the target IRAK1 (Homo sapiens, UniProt P51617). As to the kind of experiment: biochemical. Particulars: read-out: % inhibition mean (Adapta).
For the next assay, the target named is PIK3C3 (hVPS34) (Homo sapiens, UniProt Q8NEB9). In words: biochemical. To be noted: read-out: % inhibition mean (Adapta).
In another assay the target is NUAK1 (ARK5) (Homo sapiens, UniProt O60285). As to the kind of experiment: biochemical. Particulars: read-out: % inhibition mean (Adapta).
The next assay concerns the target LRRK2 FL (Homo sapiens, UniProt Q5S007). In words: biochemical. To be noted: read-out: % inhibition mean (Adapta).
Another assay deals with PIP4K2A (Homo sapiens, UniProt P48426). In words: biochemical. Particulars: read-out: % inhibition mean (Adapta).
A further assay addresses PIK3C2G (PI3K-C2 gamma) (Homo sapiens, UniProt O75747). In words: biochemical. To be noted: read-out: % inhibition mean (Adapta).
For a further assay, the target named is CDK4/cyclin D1 (Homo sapiens, UniProt P11802). In words: biochemical. To be noted: read-out: % inhibition mean (Adapta).

The term IC50 denotes the concentration needed to halve the response being measured. Low readings indicate inhibition by little substance, high ones a need for much substance. As usually defined, the inhibition is the relative decrease from the control value, in per cent.

CDK7/cyclin H/MNAT1, sequence (P50613 whole entry): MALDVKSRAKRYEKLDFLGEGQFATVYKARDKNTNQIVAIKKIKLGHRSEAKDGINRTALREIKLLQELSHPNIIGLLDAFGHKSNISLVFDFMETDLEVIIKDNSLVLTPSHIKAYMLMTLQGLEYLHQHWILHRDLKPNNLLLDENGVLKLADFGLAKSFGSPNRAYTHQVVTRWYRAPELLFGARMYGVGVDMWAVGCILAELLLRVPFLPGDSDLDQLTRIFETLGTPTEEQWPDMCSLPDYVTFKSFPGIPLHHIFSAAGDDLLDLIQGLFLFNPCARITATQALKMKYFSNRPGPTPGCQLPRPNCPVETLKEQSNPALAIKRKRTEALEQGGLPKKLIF
CDK7/cyclin H/MNAT1, sequence (P51946 whole entry partner): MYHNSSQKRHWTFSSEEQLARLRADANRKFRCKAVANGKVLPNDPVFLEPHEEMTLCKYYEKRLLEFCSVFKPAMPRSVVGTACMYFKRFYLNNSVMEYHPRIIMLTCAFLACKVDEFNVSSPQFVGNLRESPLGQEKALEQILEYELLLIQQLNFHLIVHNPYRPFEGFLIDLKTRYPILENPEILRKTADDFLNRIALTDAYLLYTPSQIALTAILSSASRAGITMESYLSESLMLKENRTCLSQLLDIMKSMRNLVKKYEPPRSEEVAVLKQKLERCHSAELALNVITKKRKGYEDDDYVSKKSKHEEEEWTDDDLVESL
CDK7/cyclin H/MNAT1, sequence (P51948 whole entry partner): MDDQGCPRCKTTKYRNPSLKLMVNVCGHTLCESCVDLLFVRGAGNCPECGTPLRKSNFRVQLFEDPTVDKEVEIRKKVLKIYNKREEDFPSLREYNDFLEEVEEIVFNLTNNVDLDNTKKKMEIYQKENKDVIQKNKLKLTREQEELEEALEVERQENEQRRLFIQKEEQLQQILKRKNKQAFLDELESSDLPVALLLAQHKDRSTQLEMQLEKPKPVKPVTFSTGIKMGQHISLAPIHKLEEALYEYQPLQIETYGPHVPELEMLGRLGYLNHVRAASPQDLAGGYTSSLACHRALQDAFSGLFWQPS
PI4KB (PI4K beta), sequence (Q9UBF8 whole entry): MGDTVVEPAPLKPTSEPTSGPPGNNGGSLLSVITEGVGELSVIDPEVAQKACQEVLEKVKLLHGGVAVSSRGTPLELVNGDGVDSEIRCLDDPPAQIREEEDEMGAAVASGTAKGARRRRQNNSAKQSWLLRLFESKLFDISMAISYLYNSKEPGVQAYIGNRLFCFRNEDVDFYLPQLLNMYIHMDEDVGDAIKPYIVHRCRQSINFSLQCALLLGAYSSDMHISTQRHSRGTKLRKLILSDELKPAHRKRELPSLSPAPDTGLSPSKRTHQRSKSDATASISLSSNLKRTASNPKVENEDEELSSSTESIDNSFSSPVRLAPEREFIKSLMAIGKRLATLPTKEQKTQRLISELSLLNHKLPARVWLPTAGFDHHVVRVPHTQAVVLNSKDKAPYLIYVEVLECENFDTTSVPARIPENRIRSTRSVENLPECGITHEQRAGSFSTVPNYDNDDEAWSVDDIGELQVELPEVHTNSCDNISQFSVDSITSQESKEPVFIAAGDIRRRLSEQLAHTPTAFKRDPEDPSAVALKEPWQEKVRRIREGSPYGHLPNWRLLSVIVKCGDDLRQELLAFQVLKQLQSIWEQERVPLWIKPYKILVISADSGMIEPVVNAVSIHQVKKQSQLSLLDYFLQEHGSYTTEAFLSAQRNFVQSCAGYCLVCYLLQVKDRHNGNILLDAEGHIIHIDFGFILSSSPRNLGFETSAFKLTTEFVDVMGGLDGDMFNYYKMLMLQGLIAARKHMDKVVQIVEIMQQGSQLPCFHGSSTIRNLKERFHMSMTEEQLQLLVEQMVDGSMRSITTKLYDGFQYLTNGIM
PI4KA (PI4K alpha), sequence (P42356 whole entry): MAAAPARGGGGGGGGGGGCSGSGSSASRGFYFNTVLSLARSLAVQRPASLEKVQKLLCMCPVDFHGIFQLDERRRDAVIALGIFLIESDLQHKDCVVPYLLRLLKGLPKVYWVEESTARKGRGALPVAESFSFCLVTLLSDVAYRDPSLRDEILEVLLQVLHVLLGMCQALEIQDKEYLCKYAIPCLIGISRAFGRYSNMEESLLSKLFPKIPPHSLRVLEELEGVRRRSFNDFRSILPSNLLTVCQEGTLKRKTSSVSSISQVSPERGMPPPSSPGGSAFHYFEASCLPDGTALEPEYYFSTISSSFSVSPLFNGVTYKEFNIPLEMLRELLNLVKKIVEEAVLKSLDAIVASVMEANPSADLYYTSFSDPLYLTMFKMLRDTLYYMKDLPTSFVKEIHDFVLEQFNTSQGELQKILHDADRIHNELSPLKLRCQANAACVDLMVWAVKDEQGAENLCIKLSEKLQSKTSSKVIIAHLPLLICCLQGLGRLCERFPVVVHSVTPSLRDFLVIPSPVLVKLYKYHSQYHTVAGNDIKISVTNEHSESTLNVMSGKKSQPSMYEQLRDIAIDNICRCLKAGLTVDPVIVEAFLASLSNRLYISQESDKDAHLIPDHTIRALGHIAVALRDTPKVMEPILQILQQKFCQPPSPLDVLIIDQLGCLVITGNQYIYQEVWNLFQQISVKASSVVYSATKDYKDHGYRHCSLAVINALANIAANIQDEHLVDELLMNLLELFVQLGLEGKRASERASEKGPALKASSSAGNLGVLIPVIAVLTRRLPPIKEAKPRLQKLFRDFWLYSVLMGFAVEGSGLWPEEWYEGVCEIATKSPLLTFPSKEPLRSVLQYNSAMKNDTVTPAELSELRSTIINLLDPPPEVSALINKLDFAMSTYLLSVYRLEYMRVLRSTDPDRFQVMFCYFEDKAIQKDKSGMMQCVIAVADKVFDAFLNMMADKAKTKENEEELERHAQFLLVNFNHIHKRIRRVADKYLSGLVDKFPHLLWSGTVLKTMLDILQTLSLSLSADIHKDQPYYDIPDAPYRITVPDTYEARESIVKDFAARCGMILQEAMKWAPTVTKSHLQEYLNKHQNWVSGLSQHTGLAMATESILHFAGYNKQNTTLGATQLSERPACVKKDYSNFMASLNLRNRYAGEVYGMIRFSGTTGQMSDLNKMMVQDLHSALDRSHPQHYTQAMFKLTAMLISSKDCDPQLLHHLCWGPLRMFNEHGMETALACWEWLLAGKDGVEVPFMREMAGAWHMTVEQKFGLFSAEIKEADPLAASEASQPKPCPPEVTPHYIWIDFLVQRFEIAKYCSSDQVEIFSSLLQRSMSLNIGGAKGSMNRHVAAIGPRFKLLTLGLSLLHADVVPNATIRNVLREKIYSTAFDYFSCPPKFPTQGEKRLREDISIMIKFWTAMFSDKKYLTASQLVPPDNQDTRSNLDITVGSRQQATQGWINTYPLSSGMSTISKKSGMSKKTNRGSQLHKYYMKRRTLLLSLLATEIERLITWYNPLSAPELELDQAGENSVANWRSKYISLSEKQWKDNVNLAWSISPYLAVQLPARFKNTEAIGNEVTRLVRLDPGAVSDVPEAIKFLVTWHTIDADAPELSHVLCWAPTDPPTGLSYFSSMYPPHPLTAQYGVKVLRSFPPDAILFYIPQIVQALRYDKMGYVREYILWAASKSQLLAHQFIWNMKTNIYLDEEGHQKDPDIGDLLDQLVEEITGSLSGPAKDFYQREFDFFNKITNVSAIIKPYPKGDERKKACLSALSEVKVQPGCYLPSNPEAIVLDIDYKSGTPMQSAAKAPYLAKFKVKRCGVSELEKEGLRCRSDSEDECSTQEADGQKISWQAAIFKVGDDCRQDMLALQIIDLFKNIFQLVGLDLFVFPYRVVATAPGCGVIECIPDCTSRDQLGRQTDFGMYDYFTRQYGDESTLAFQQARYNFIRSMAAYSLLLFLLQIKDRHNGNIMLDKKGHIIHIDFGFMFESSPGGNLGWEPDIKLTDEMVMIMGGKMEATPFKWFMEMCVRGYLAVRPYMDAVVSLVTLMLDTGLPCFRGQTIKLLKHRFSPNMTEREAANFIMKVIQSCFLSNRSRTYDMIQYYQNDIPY
CHUK (IKK alpha), sequence (O15111 whole entry): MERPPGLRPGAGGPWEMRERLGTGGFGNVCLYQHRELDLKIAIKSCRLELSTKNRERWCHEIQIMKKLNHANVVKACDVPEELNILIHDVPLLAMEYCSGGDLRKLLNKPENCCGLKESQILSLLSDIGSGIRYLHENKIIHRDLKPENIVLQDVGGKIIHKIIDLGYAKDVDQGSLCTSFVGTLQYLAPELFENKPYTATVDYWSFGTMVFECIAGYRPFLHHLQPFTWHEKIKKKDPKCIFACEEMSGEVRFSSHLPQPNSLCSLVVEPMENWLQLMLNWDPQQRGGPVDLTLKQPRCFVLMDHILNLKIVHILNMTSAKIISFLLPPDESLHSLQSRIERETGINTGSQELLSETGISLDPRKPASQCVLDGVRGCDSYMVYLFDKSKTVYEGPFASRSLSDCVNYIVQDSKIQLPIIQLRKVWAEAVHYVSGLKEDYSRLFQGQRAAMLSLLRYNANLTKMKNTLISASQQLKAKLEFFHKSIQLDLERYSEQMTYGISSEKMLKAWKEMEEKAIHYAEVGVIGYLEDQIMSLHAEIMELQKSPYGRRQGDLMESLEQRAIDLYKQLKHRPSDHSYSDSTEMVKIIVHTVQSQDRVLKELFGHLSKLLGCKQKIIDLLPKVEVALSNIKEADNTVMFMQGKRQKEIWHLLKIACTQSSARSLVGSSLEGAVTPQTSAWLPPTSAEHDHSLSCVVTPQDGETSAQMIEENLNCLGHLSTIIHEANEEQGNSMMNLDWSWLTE
PIP4K2A, sequence (P48426 whole entry): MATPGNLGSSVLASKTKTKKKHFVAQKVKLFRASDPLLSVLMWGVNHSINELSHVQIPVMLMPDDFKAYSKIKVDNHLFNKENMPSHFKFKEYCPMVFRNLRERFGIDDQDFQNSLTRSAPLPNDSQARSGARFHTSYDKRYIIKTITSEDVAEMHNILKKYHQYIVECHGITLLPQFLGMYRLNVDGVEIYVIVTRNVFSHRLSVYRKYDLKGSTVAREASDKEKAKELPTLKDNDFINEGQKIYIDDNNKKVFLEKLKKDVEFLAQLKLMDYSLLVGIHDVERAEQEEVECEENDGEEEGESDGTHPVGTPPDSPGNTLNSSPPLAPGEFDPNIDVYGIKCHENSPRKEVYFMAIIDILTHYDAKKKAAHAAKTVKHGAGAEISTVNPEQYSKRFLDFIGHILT

The molecule `COc1ccc2nc3cc(Cl)ccc3c(Nc3cc(CN4CCCC4)c(O)c(CN4CCCC4)c3)c2n1` [Pyronaridine, 4-[(7-Chloro-2-methoxybenzo[b][1,5]naphthyridin-10-yl)amino]-2,6-bis(1-pyrrolidinylmethyl)phenol phosphate (1:4)] displayed an IC50 at CAMK1 (CaMK1) of 2400 nM. For the same molecule, the inhibition at 1 µM on CDK7/cyclin H/MNAT1 was -13%; on PI4KA (PI4K alpha), 0%; in assay [1], 9%; on CDK6/cyclin D1 it was 1%; at PIP5K1C, -3%; at PI4KB (PI4K beta), 5%. Moreover, the inhibition at 1 µM was 7% in assay [2]; 0% on CHUK (IKK alpha); 4% on LRRK2 G2019S; -5% on PIK3C2B (PI3K-C2 beta); 4% at PI4K2A (PI4K2 alpha); -4% on IRAK1. Moreover, the inhibition at 1 µM is -4% at PIK3C3 (hVPS34); 11% at NUAK1 (ARK5); -4% at LRRK2 FL; 15% at PIP4K2A; 3% at PIK3C2G (PI3K-C2 gamma); 1% on CDK4/cyclin D1.
